Activity calls are given as the source filed them. No cut-off for these calls is given here.
What was measured:
Heart [1] = test: Cardioprotective activity in Langendorff perfused Sprague-Dawley rat heart assessed as reduction in number of cardiomycotic apoptic cells at 50 mM preperfused 15 mins before global ischemia challenge for 30 mins followed by 120 mins of reperfusion by TUNEL assay; format: functional; parameters: scale not given: the % may be the effect or the level left
Heart [2] = test: Cardioprotective activity in Langendorff perfused Sprague-Dawley rat heart assessed as down regulation of HO1 at 50 mM preperfused 15 mins before global ischemia challenge for 30 mins followed by 120 mins of reperfusion by Western blotting; format: functional, tissue-based
Heart [3] = test: Cardioprotective activity in Langendorff perfused Sprague-Dawley rat heart assessed as […] of Bcl2 at 50 mM preperfused 15 mins before global ischemia challenge for 30 mins followed by 120 mins of reperfusion by Western blotting; format: functional, tissue-based
Heart [4] = test: Cardioprotective activity in Langendorff perfused Sprague-Dawley rat heart assessed as recovery of first derivative of left ventricular developed pressure at 50 mM preperfused 15 mins before global ischemia challenge for 30 mins followed by 120 mins of reperfusion; format: functional, tissue-based
Heart [5] = test: Cardioprotective activity in Langendorff perfused Sprague-Dawley rat heart assessed as recovery of left ventricular developed pressure at 50 mM preperfused 15 mins before global ischemia challenge for 30 mins followed by 120 mins of reperfusion; format: functional, tissue-based
Heart [6] = test: Cardioprotective activity in Langendorff perfused Sprague-Dawley rat heart assessed as prevention of cytochrom c release from cytosolic fraction at 50 mM preperfused 15 mins before global ischemia challenge for 30 mins followed by 120 mins of reperfusion by Western blotting; format: functional, tissue-based
Heart [7] = test: Cardioprotective activity in Langendorff perfused Sprague-Dawley rat heart assessed as reduction of caspase 3 activation at 50 mM preperfused 15 mins before global ischemia challenge for 30 mins followed by 120 mins of reperfusion by Western blotting; format: functional, tissue-based
Heart [8] = test: Cardioprotective activity in Langendorff perfused Sprague-Dawley rat heart assessed as reduction of pro-caspase 3 activation in ischemic reperfused myocardium at 50 mM preperfused 15 mins before global ischemia challenge for 30 mins followed by 120 mins of reperfusion by Western blotting; format: functional, tissue-based
Heart [9] = test: Cardioprotective activity in Langendorff perfused Sprague-Dawley rat heart assessed as activation of Akt phosphorylation at 50 mM preperfused 15 mins before global ischemia challenge for 30 mins followed by 120 mins of reperfusion; format: functional, tissue-based
Heart [10] = test: Cardioprotective activity in Langendorff perfused Sprague-Dawley rat heart assessed as reduction in myocardial infarction size at 50 mM preperfused 15 mins before global ischemia challenge for 30 mins followed by 120 mins of reperfusion by triphenyl tetrazolium chloride method; format: functional; parameters: scale not given: the % may be the effect or the level left
Heart [11] = test: Cardioprotective activity in Langendorff perfused Sprague-Dawley rat heart assessed as recovery of aortic pressure at 50 mM preperfused 15 mins before global ischemia challenge for 30 mins followed by 120 mins of reperfusion; format: functional, tissue-based

SMILES	Activity (Heart [1]) [%]	Activity (Heart [2])	Activity (Heart [3])	Activity (Heart [4])	Activity (Heart [5])	Activity (Heart [6])	Activity (Heart [7])	Activity (Heart [8])	Activity (Heart [9])	Activity (Heart [10]) [%]	Activity (Heart [11])
C/C=C/C=C/C=C/C(=O)[O-].[K+]	13.6	Active	Active	Active	Active	Active	Active	Active	Active	15	Active
C/C=C/C=C/C=C/C=O	15	Active	Active	Active	Active	Active	Active	Active	Active	16	Active

From ChEMBL document CHEMBL1151970, “Cardioprotection with the parrodiene 2,4,6-octatrienal and its potassium salt through activation of the Akt-Bcl-2 survival pathway” (2009)
